Experimental data published in patent US20040180888A1 (priority 2001, published 2004).
Where two headings read alike, the source gives them in different places.

Key:
[1] = tested on: HIV-1; conditions: for (Nx) protein binding shift α-GP 1 mg/mL: EC90 with 1 mg/mL glycoprotein versus RPMI; for (Nx) protein binding shift HSA 45 mg/mL: EC90 with 45 mg/mL HSA versus RPMI
[2] = tested on: mock-infected MT-4 cells; assay: Viability of mock-infected MT-4 cells, MTT method; assay type: cell-based
[3] = Viability of mock-infected MT-4 cells, MTT method; assay type: cell-based; conditions: human; mock-infected MT-4 cells, MTT
[4] = tested on: HIV-1 Y181C; assay: microbe, parasite or virus in culture; assay type: cell-based; conditions: for Y181C (Nx) resistance shift: EC50 Y181C versus WTIIIB
[5] = tested on: HIV-1 WTIIIB; assay: p24 reduction in virus-infected C8166 cells, WTIIIB; assay type: cell-based
[6] = tested on: HIV-1 K103N-Y181C; assay: microbe, parasite or virus in culture; assay type: cell-based; conditions: for K103N-Y181C (Nx) resistance shift: EC50 K103N-Y181C versus WTIIIB
[7] = tested on: HIV-1 WTIIIB; assay: Protection of MT-4 cells from HIV-1-induced cytopathogenicity, MTT method, WTIIIB; assay type: cell-based
Description: Example 26 illustrates the influence of substituents at positions 4, 5, 6, and 7 of the indole ring, in which position 2 of the indole ring is maintained constant, and the substitution at the 3,5-position of the phenyl ring is either hydrogen or held constant with a 3,5-dimethyl substitution. Table 3 presents the influence of these variations on the ability of the compounds to protect cells from HIV-1 induced pathogenecity.

[8] = tested on: HIV-1 K103R; assay: microbe, parasite or virus in culture; assay type: cell-based; conditions: for K103R (Nx) resistance shift: EC90 K103R versus WTIIIB
[9] = read-out: EC90 HSA 45 mg/mL, HIV-1-infected MT-4 cells, RPMI 10% FCS plus 45 mg/mL human serum albumin
[10] = read-out: EC90 RPMI, reduce p24 by 90% in HIV-1-infected MT-4 cells, RPMI 10% FCS
[11] = read-out: EC90 α-GP 1 mg/mL, HIV-1-infected MT-4 cells, RPMI 10% FCS plus 1 mg/mL glycoprotein
[12] = Human immunodeficiency virus 1, MT4, read-out: Y181C EC50
[13] = Human immunodeficiency virus 1, MT4, read-out: K103N-Y181C EC50
[14] = Human immunodeficiency virus 1, MT4, 50% protection of MT-4 cells
[15] = 50% protection of MT-4 cells, MTT, read-out: Y181C EC50
[16] = reduce p24 by 90% in virus-infected C8166 cells, read-out: WTIIIB EC90
[17] = 50% protection of MT-4 cells, MTT, read-out: K103N-Y181C EC50
[18] = reduce p24 by 90% in virus-infected C8166 cells, read-out: K103R EC90

In the case of “5-Chloro-3-(3,5-dimethylphenylsulfonyl)-indole-2-carboxyamide [compound 2]”, the “(Nx) protein binding shift α-GP 1 mg/mL” value [1] is reported as 2 x, the “(Nx) protein binding shift HSA 45 mg/mL” value [1] is reported as 40 x and the EC90 [1, 9] is reported as 0.2 µM. It also gave an EC90 [1, 10] of 0.005 µM and an EC90 [1, 11] of 0.01 µM.
Cc1cc(C)cc(S(=O)(=O)c2c(CC(N)=O)[nH]c3ccc(Cl)c(F)c23)c1 [5g, 5-Chloro-3-(3,5-dimethylphenylsulfonyl)-4-fluoroindole-2-carboxyamide] gave a melting point of 268 to 270 °C.
In the case of Cc1cc(C)cc(S(=O)(=O)c2c(CC(N)=O)[nH]c3ccc(F)c(Cl)c23)c1 [5h, 4-Chloro-3-(3,5-dimethylphenylsulfonyl)-5-fluoroindole-2-carboxyamide], the melting point is reported as 279 to 280 °C.
Work on Cc1cc(C)cc(S(=O)(=O)c2c(CC(N)=O)[nH]c3cc(Cl)c(F)cc23)c1 [5i, 6-Chloro-3-(3,5-dimethylphenylsulfonyl)-5-fluoroindole-2-carboxyamide] yielded a melting point of 262 to 264 °C.
With Cc1cc(C)cc(S(=O)(=O)c2c(CC(N)=O)[nH]c3ccc([N+](=O)[O-])cc23)c1 [5k, 5-Nitro-3-(3,5-dimethylphenylsulfonyl)indole-2-carboxyamide] the melting point was 270 to 272 °C.
With CC(=O)c1ccc2[nH]c(CC(N)=O)c(Sc3cc(C)cc(C)c3)c2c1 [5l, 5-Acetyl-3-(3,5-dimethylphenylthio)indole-2-carboxyamide] the melting point was > 300 °C.
For NC(=O)Cc1[nH]c2ccc(-n3cccc3)cc2c1S(=O)(=O)c1ccccc1 [25a, 5-(1H-Pyrrol-1-yl)-3-(phenylsulfonyl)indole-2-carboxyamide], the melting point was 250 °C.
In the case of CNNC(=O)c1[nH]c2ccc(Cl)cc2c1S(=O)(=O)c1cc(C)cc(C)c1 [Compd 10], the CC50 [2] is reported as > 200 µM.
Compound Cc1cc(C)cc(S(=O)(=O)c2c(C(=O)NNC(C)C)[nH]c3ccc(Cl)cc23)c1 [Compd 11] has a CC50 [2] of 17 µM.
For Cc1cc(C)cc(S(=O)(=O)c2c(C(=O)N3CCN(C)CC3)[nH]c3ccc(Cl)cc23)c1 [Compd 13], the CC50 [2] was > 200 µM.
Compound O=C1Nc2ccc(Cl)cc2[C@@](C#CC2CC2)(C(F)(F)F)O1 [EFV, efavirenz, reference compound] has a CC50 [3] of 35 µM, an EC50 [4, 12] of 0.025 µM and an EC90 ([5]; Human immunodeficiency virus 1, C8166, read-out: WTIIIB EC90) of 0.008 µM. It also gave an EC50 [6, 13] of 0.15 µM, an EC50 [7, 14] of 0.004 µM and an EC90 ([8]; Human immunodeficiency virus 1, C8166, read-out: K103R EC90) of 1.8 µM.
In the case of Cc1ccnc2c1NC(=O)c1cccnc1N2C1CC1 [NVP, nevirapine, reference compound], the CC50 [3] is reported as 200 µM, the EC50 [4, 12] is reported as > 30 µM and the EC50 [6, 13] is reported as > 30 µM. It also gave an EC50 [7, 14] of 0.37 µM.
For NC(=O)c1[nH]c2ccc(Cl)cc2c1S(=O)(=O)c1ccccc1 [compound 1], the “(Nx) protein binding shift α-GP 1 mg/mL” value [1] was 2 x, the “(Nx) protein binding shift HSA 45 mg/mL” value [1] was 10 x and the EC90 [1, 9] was 0.01 µM. The EC90 [1, 10] was 0.001 µM and the EC90 [1, 11] was 0.002 µM.
With Cc1cc(C)cc(S(=O)(=O)c2c(C(=O)NNCCO)[nH]c3ccc(Cl)cc23)c1 [compound 3, 5-Chloro-3-(3,5-dimethylphenylsulfonyl)indole-2-[N′-(2-hydroxy-ethyl)]-carboxyhydrazide] the “(Nx) protein binding shift α-GP 1 mg/mL” value [1] was 7 x, the “(Nx) protein binding shift HSA 45 mg/mL” value [1] was 67 x and the EC90 [1, 9] was 0.27 µM. For the same compound, the EC90 [1, 10] was 0.004 µM and the EC90 [1, 11] was 0.03 µM.
For Cc1cc(C)cc(S(=O)(=O)c2c(C(=O)NCC(N)=O)[nH]c3ccc(Cl)cc23)c1 [compound 4, 2-[N-[5-Chloro-3-(3,5-dimethylphenylsulfonyl)indol-2-carboxy-amido]]-acetamide], the CC50 [2] was 30 µM, the EC50 [4, 15] was 0.03 µM and the “Y181C (Nx) resistance shift” value [4] was 5 x. The EC90 [5, 16] was 0.01 µM, the EC50 [6, 17] was 0.8 µM and the “K103N-Y181C (Nx) resistance shift” value [6] was 133 x. For the same compound, the EC50 ([7]; 50% protection of MT-4 cells) was 0.006 µM, the “K103R (Nx) resistance shift” value [8] was 10 x and the EC90 [8, 18] was 0.1 µM. The “(Nx) protein binding shift α-GP 1 mg/mL” value [1] was 3 x, the “(Nx) protein binding shift HSA 45 mg/mL” value [1] was 80 x and the EC90 [1, 9] was 4.8 µM. The EC90 [1, 10] was 0.06 µM and the EC90 [1, 11] was 0.2 µM.
In the case of NC(=O)c1[nH]c2cc(Cl)c(Cl)cc2c1S(=O)(=O)c1ccccc1 [compound 8], the CC50 [2] is reported as 123 µM, the EC50 [4, 15] is reported as 2.6 µM and the “Y181C (Nx) resistance shift” value [4] is reported as 18 x. For the same compound, the EC90 [5, 16] was 0.17 µM, the EC50 [6, 17] was > 100 µM and the “K103N-Y181C (Nx) resistance shift” value [6] was > 714 x. The EC50 ([7]; 50% protection of MT-4 cells) was 0.14 µM, the “K103R (Nx) resistance shift” value [8] was 94 x and the EC90 [8, 18] was 16 µM.
With Cc1cc(C)cc(S(=O)(=O)c2c(CC(N)=O)[nH]c3c(Cl)cc(Cl)cc23)c1 [compound 10, 5,7-Dichloro-3-(3,5-dimethylphenylsulfonyl)indole-2-carboxyamide] the melting point was > 300 °C.
Cc1cc(C)cc(S(=O)(=O)c2c(CC(N)=O)[nH]c3ccc(F)c(F)c23)c1 [compound 11, 3-(3,5-Dimethylphenylsulfonyl)-4,5-difluoroindole-2-carboxyamide] gave a melting point of 298 to 300 °C.
In the case of Cc1cc(C)cc(S(=O)(=O)c2c(C(N)=O)[nH]c3cc(F)c(F)cc23)c1 [compound 12, 3-(3,5-Dimethylpbenylsulfonyl)-5,6-difluoroindole-2-carboxyamide], the EC50 [4, 15] is reported as 0.07 µM, the “Y181C (Nx) resistance shift” value [4] is reported as “(≧23.3) x” and the EC50 [6, 17] is reported as 2.6 µM. The “K103N-Y181C (Nx) resistance shift” value [6] was ≥ 866 x and the EC50 ([7]; 50% protection of MT-4 cells) was ≤ 0.003 µM.
With Cc1cc(C)cc(S(=O)(=O)c2c(CC(N)=O)[nH]c3c(F)cc(F)cc23)c1 [compound 13, 3-(3,5-Dimethylphenylsulfonyl)-5,7-difluoroindole-2-carboxyamide] the melting point was > 300 °C.
